Source: patent US8815857B2 (Boehringer Ingelheim International GmbH, priority 2011, dated 2014)
In brackets after ≈: the same amount, converted by molar mass.

Key:
[1] = Assessment of solubility: HT solubility in pION buffer, UV spectrophotometry; conditions: 16-19 h incubation, 1.0% DMSO; for solubility: pION system solution buffer, kinetic from dmso stock
[2] = target: T1, Recombinant human soluble guanylate cyclase (sGC), alpha 1 / beta 1 subunits, heme-free (Homo sapiens, UniProt Q02108+Q02153); test: Molecular assay: cGMP formation by heme-free recombinant sGC (CisBio cGMP detection kit); type: biochemical; conditions: 300 pM heme-free sGC, 37° C., 60 min, cGMP readout; read-out: EC50 nM, Activity of Compounds in Molecular Assay
T1 construct: histidine tag (C); made in house; host or cells: Sf9 insect cells (baculovirus coinfection)
T1 sequence (Q02108 1-690 partner): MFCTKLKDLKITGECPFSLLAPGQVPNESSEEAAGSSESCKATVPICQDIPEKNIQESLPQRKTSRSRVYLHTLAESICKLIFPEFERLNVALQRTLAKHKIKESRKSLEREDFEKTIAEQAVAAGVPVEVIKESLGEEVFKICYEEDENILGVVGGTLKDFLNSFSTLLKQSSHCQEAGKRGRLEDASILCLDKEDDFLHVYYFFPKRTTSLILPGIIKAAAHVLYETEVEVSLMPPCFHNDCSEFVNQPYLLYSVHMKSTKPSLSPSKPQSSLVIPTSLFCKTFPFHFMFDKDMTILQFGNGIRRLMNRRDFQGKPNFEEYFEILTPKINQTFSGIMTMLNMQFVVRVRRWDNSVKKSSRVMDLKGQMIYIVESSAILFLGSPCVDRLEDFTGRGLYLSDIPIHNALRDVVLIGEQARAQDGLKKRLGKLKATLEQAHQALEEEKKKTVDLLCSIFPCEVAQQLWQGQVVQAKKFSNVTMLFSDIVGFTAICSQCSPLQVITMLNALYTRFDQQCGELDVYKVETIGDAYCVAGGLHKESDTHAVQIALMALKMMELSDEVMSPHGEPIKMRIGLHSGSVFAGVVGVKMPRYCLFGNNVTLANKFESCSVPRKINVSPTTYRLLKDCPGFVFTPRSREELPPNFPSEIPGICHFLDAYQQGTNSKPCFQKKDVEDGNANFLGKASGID
T1 sequence (Q02153 1-619): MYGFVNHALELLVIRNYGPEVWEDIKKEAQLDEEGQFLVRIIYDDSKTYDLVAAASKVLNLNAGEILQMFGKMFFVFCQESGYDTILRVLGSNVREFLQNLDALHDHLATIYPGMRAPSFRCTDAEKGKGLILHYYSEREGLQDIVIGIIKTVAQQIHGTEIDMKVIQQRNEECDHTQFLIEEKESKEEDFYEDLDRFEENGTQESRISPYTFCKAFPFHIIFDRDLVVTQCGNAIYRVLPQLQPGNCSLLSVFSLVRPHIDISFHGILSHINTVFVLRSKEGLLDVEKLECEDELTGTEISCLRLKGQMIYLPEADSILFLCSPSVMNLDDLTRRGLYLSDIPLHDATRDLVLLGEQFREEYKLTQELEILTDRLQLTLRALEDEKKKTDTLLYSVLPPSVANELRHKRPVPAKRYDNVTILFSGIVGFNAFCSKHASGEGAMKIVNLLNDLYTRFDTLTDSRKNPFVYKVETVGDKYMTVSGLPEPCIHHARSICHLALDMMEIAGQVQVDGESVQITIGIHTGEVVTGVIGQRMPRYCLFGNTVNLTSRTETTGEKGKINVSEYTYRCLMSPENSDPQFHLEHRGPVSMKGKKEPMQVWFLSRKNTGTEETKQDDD
Outline: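 Heme-free His-tagged sGC (Sf9-expressed, Tween 20-treated lysate) at 300 pM incubated with compounds (1% DMSO) for 60 min at 37° C in MOPS pH 6.8 with 50 nM GTP, IBMX, TCEP. cGMP quantified by HTRF against calibration curve; EC50 from combined undiluted/diluted values.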

[3] = pH 7.4, pH 7.4, aqueous buffer, Solubility (pH 7.4), pH 7.4 buffer
[4] = pH 4.5, pH 4.5, aqueous buffer, Solubility (pH 4.5), pH 4.5 buffer

Cc1cc(C(=O)N2CCCCC2)ccc1COc1ccc(C#N)cc1-c1csc(N2CC3C(C2)C3C(=O)O)n1 (stereo not drawn) [Compound 64]
Solubility (pH 4.5) ([1]; pH 4.5 buffer): 0.1 μg/mL
solubility [1, 3]: > 54 µg/mL
EC50 [2]: 1800 nM

Cc1ccc(OCc2ccc(C(=O)N3CCCCC3)cc2C#N)c(-c2csc(N3CCC(C(=O)O)CC3)n2)c1 [Compound 65]
Solubility (pH 4.5) ([1]; pH 4.5 buffer): 0.1 μg/mL
solubility [1, 3]: 23 µg/mL (≈ 42.2 µM)
EC50 [2]: 58 nM

Cc1cc(C(=O)N2CCCCC2)ccc1COc1c(C#N)cccc1-c1csc(N2CCC(C(=O)O)CC2)n1 [Compound 66]
solubility [1, 4]: 1 µg/mL (≈ 1.84 µM)
solubility [1, 3]: > 54 µg/mL
EC50 [2]: 450 nM

Cc1cc(C(=O)N2CCCCC2)ccc1COc1ccccc1-c1csc(N2CC3CCC(C2)C3C(=O)O)n1 (stereo not drawn) [Compound 67]
solubility [1, 4]: 0.2 µg/mL (≈ 0.366 µM)
solubility [1, 3]: > 54 µg/mL
EC50 [2]: 2.5 nM

Cc1cc(C(=O)N2CCCCC2)ccc1COc1ccccc1-c1csc(N2C3CCC2CC(C(=O)O)C3)n1 (stereo not drawn) [Compound 68]
solubility [1, 4]: 1.2 µg/mL (≈ 2.2 µM)
solubility [1, 3]: > 54 µg/mL
EC50 [2]: 43 nM

Cc1ccc(OCc2ccc(C(=O)N3CCOCC3)cc2C#N)c(-c2csc(N3CCC(C(=O)O)CC3)n2)c1 [Compound 70]
solubility [1, 4]: 0.45 µg/mL (≈ 0.823 µM)
solubility [1, 3]: > 54 µg/mL
EC50 [2]: 180 nM

Cc1ccc(OCc2ccc(C(=O)N3CCCCC3)cc2C)c(-c2csc(N3CCC(C(=O)O)C(C)C3)n2)c1 (stereo not drawn) [Compound 71]
solubility [1, 4]: 42 µg/mL (≈ 76.7 µM)
solubility [1, 3]: > 62 µg/mL
EC50 [2]: 12000 nM

Cc1cc(CN2CCOCC2)ccc1COc1ccc(C#N)cc1-c1csc(N2CCC(C(=O)O)C(C)C2)n1 (stereo not drawn) [Compound 72]
solubility [1, 4]: 0.5 µg/mL (≈ 0.915 µM)
solubility [1, 3]: > 54 µg/mL
EC50 [2]: 4.8 nM

Cc1ccc(OCc2ccc(C(=O)N3CCCCC3)cc2C)c(-c2csc(N3CCC(C(=O)O)CC3C)n2)c1 (stereo not drawn) [Compound 73]
solubility [1, 4]: 1.9 µg/mL (≈ 3.47 µM)
solubility [1, 3]: > 54 µg/mL
EC50 [2]: 7.6 nM

Cc1ccc(OCc2ccc(CN3CCOCC3)cc2C)c(-c2csc(N3CC4CCC(C3)C4C(=O)O)n2)c1 (stereo not drawn) [Compound 74]
solubility [1, 4]: 40 µg/mL (≈ 73 µM)
solubility [1, 3]: 42 µg/mL (≈ 76.7 µM)
EC50 [2]: 27 nM

COCCN(C)Cc1ccc(COc2ccc(C)cc2-c2csc(N3CC[C@@H](C(=O)O)[C@@H](C)C3)n2)c(C#N)c1 [Compound 75]
solubility [1, 4]: > 66 µg/mL
solubility [1, 3]: > 66 µg/mL
EC50 [2]: 600 nM

Cc1cc(C(=O)N2CCCCC2)ccc1COc1ccc(Cl)cc1-c1csc(C2=CCC(C(=O)O)CC2)n1 (stereo not drawn) [Compound 76]
Solubility (pH 4.5) ([1]; pH 4.5 buffer): 0.1 μg/mL
solubility [1, 3]: 4.1 µg/mL (≈ 7.44 µM)
EC50 [2]: 600 nM

Cc1cc(CN2CCOCC2)ccc1COc1ccc(F)cc1-c1csc(N2CC3CCC(C2)C3C(=O)O)n1 (stereo not drawn) [Compound 77]
solubility [1, 4]: 22 µg/mL (≈ 39.9 µM)
solubility [1, 3]: 16 µg/mL (≈ 29 µM)
EC50 [2]: 4400 nM

Cc1cc(C(=O)N2CCCCC2)ccc1COc1ccc(Cl)cc1-c1csc(N2CC3C(C2)C3C(=O)O)n1 (stereo not drawn) [Compound 78]
solubility [1, 4]: 0.2 µg/mL (≈ 0.362 µM)
solubility [1, 3]: > 55 µg/mL
EC50 [2]: 550 nM

Cc1cc(C(=O)N2CCCCC2)ccc1COc1ccc(F)cc1-c1csc(N2CCC(C(=O)O)CC2C)n1 (stereo not drawn) [Compound 79]
solubility [1, 4]: 0.25 µg/mL (≈ 0.453 µM)
solubility [1, 3]: > 55 µg/mL
EC50 [2]: 50 nM

Cc1cc(CN2CCOCC2)ccc1COc1ccc(F)cc1-c1csc(N2C3CCC2CC(C(=O)O)C3)n1 (stereo not drawn) [Compound 80]
solubility [1, 4]: > 62 µg/mL
solubility [1, 3]: > 62 µg/mL
EC50 [2]: 740 nM

N#Cc1cc(CN2CCOCC2)ccc1COc1c(Cl)cccc1-c1csc(N2CCC(C(=O)O)CC2)n1 [Compound 81]
solubility [1, 4]: 36 µg/mL (≈ 65.1 µM)
solubility [1, 3]: 38 µg/mL (≈ 68.7 µM)
EC50 [2]: 70 nM

Cc1cc(CN2CCS(=O)(=O)CC2)ccc1COc1ccccc1-c1csc(N2CC3C(C2)C3C(=O)O)n1 (stereo not drawn) [Compound 82]
solubility [1, 4]: 12 µg/mL (≈ 21.7 µM)
solubility [1, 3]: > 55 µg/mL
EC50 [2]: 3100 nM

Cc1cc(CN2CCOCC2)ccc1COc1ccc(Cl)cc1-c1csc(N2CCC(C(=O)O)C(C)C2)n1 (stereo not drawn) [Compound 83]
solubility [1, 4]: 11 µg/mL (≈ 19.8 µM)
solubility [1, 3]: 25 µg/mL (≈ 45 µM)
EC50 [2]: 210 nM

Cc1cc(CN2CCOCC2)ccc1COc1ccc(Cl)cc1-c1csc(N2CCC(C(=O)O)CC2C)n1 (stereo not drawn) [Compound 84]
solubility [1, 4]: 14 µg/mL (≈ 25.2 µM)
solubility [1, 3]: 21 µg/mL (≈ 37.8 µM)
EC50 [2]: 180 nM

Cc1cc(C(=O)N2CCCCC2)ccc1COc1ccc(C#N)cc1-c1csc(N2CCC(C(=O)O)CC2C)n1 (stereo not drawn) [Compound 85]
solubility [1, 4]: 0.35 µg/mL (≈ 0.626 µM)
solubility [1, 3]: > 55 µg/mL
EC50 [2]: 1100 nM

Cc1cc(CN2CCOCC2)ccc1COc1ccc(C#N)cc1-c1csc(N2CC3CCC(C2)C3C(=O)O)n1 (stereo not drawn) [Compound 86]
solubility [1, 4]: 3.5 µg/mL (≈ 6.26 µM)
solubility [1, 3]: 5.7 µg/mL (≈ 10.2 µM)
EC50 [2]: 7100 nM

Cc1cc(CN2CCOCC2)ccc1COc1ccc(C#N)cc1-c1csc(N2C3CCC2CC(C(=O)O)C3)n1 (stereo not drawn) [Compound 87]
solubility [1, 4]: > 63 µg/mL
solubility [1, 3]: > 63 µg/mL
EC50 [2]: 800 nM

Cc1ccc(OCc2ccc(C(=O)N3CCCCC3)cc2C)c(-c2csc(N3C4CCC3CC(C(=O)O)C4)n2)c1 (stereo not drawn) [Compound 88]
solubility [1, 4]: 0.45 µg/mL (≈ 0.804 µM)
solubility [1, 3]: > 55 µg/mL
EC50 [2]: 15 nM

Cc1ccc(OCc2ccc(C(=O)N3CCCCC3)cc2C)c(-c2csc(N3CC4CCC(C3)C4C(=O)O)n2)c1 (stereo not drawn) [Compound 89, 3-(4-{5-methyl-2-[2-methyl-4-(piperidine-1-carbonyl)-benzyloxy]-phenyl}-thiazol-2-yl)-3-aza-bicyclo[3.2.1]octane-8-carboxylic acid]
solubility [1, 4]: 0.35 µg/mL (≈ 0.625 µM)
solubility [1, 3]: 32 µg/mL (≈ 57.2 µM)
EC50 [2]: 2.5 nM

Cc1ccc(OCc2ccc(C(=O)N3CCC(O)CC3)cc2C#N)c(-c2csc(N3CCC(C(=O)O)CC3)n2)c1 [Compound 90]
solubility [1, 4]: 35 µg/mL (≈ 62.4 µM)
solubility [1, 3]: > 56 µg/mL
EC50 [2]: 150 nM

Cc1ccc(OCc2ccc(CN(C)CC3CCCCC3)cc2C)c(-c2csc(N3CCC(C(=O)O)CC3)n2)c1 [Compound 91]
solubility [1, 4]: 31 µg/mL (≈ 55.2 µM)
solubility [1, 3]: 12 µg/mL (≈ 21.4 µM)
EC50 [2]: 730 nM

COCCCN(C)C(=O)c1ccc(COc2ccc(C)cc2-c2csc(N3CCC(C(=O)O)CC3)n2)c(C#N)c1 [Compound 92]
solubility [1, 4]: 20 µg/mL (≈ 35.5 µM)
solubility [1, 3]: 12 µg/mL (≈ 21.3 µM)
EC50 [2]: 78 nM

Cc1cc(CN2CCCC(C(N)=O)C2)ccc1COc1c(C)cccc1-c1csc(N2CCC(C(=O)O)CC2)n1 (stereo not drawn) [Compound 94]
solubility [1, 4]: > 56 µg/mL
solubility [1, 3]: > 56 µg/mL
EC50 [2]: 770 nM

CC(=O)N1CCN(Cc2ccc(COc3c(C)cccc3-c3csc(N4CCC(C(=O)O)CC4)n3)c(C)c2)CC1 [Compound 95]
solubility [1, 4]: > 56 µg/mL
solubility [1, 3]: > 56 µg/mL
EC50 [2]: 35 nM

Cc1ccc(OCc2ccc(CN(C)CC3CCOCC3)cc2C)c(-c2csc(N3CCC(C(=O)O)CC3)n2)c1 [Compound 96]
solubility [1, 4]: > 67 µg/mL
solubility [1, 3]: > 67 µg/mL
EC50 [2]: 550 nM

Cc1cc(C(=O)N2CCCCC2)ccc1COc1ccc(F)cc1-c1csc(N2C3CCC2CC(C(=O)O)C3)n1 (stereo not drawn) [Compound 97]
solubility [1, 4]: 0.45 µg/mL (≈ 0.798 µM)
solubility [1, 3]: > 56 µg/mL
EC50 [2]: 59 nM

Cc1cc(C(=O)N2CCCCC2)ccc1COc1ccc(F)cc1-c1csc(N2CC3CCC(C2)C3C(=O)O)n1 (stereo not drawn) [Compound 98]
solubility [1, 4]: 0.2 µg/mL (≈ 0.355 µM)
solubility [1, 3]: > 56 µg/mL
EC50 [2]: 780 nM

Cc1cc(CN2CCOCC2)ccc1COc1ccc(Cl)cc1-c1csc(N2CC3CCC(C2)C3C(=O)O)n1 (stereo not drawn) [Compound 99]
solubility [1, 4]: 4.7 µg/mL (≈ 8.27 µM)
solubility [1, 3]: 13 µg/mL (≈ 22.9 µM)
EC50 [2]: 690 nM

Cc1cc(CN2CCOCC2)ccc1COc1ccc(Cl)cc1-c1csc(N2C3CCC2CC(C(=O)O)C3)n1 (stereo not drawn) [Compound 100]
solubility [1, 4]: 20 µg/mL (≈ 35.2 µM)
solubility [1, 3]: 27 µg/mL (≈ 47.5 µM)
EC50 [2]: 440 nM

Cc1ccc(OCc2ccc(CN3CCS(=O)(=O)CC3)cc2C)c(-c2csc(N3CC4C(C3)C4C(=O)O)n2)c1 (stereo not drawn) [Compound 101]
solubility [1, 4]: 3 µg/mL (≈ 5.28 µM)
solubility [1, 3]: > 56 µg/mL
EC50 [2]: 1700 nM
